Experimental data taken from PMC11062922 (Nature Chemical Biology, 2023).

Legend:
MAP3K11 = assay: Kinobeads competition binding: MAP3K11; design: species or system human; details: target MAP3K11
BRAF = assay: Kinobeads competition binding: BRAF; design: species or system human; details: target BRAF
CDK17 = assay: Kinobeads competition binding: CDK17; design: species or system human; details: target CDK17
AKT2 = target: T1, AKT2 (Homo sapiens, UniProt P31751); assay: Kinobeads competition binding: AKT2; details: target AKT2
T1 construct: endogenous in cells

EPHA2 = target: T2, EPHA2 (Homo sapiens, UniProt P29317); assay: Kinobeads competition binding: EPHA2; details: target EPHA2
T2 construct: endogenous in cells
Excerpt: Supplement 41589_2023_1459_MOESM4_ESM.xlsx, sheet "CATDS matrix" | column: EPHA2

CSNK1D = target: T3, CSNK1D (Homo sapiens, UniProt P48730); assay: Kinobeads competition binding: CSNK1D; details: target CSNK1D
T3 construct: endogenous in cells

NEK3 = assay: Kinobeads competition binding: NEK3; design: species or system human; details: target NEK3
CDK12 = assay: Kinobeads competition binding: CDK12; design: species or system human; details: target CDK12
IKBKE = target: T4, IKBKE (Homo sapiens, UniProt Q14164); assay: Kinobeads competition binding: IKBKE; details: target IKBKE
T4 construct: endogenous in cells
T4 sequence (Q14164 1-716): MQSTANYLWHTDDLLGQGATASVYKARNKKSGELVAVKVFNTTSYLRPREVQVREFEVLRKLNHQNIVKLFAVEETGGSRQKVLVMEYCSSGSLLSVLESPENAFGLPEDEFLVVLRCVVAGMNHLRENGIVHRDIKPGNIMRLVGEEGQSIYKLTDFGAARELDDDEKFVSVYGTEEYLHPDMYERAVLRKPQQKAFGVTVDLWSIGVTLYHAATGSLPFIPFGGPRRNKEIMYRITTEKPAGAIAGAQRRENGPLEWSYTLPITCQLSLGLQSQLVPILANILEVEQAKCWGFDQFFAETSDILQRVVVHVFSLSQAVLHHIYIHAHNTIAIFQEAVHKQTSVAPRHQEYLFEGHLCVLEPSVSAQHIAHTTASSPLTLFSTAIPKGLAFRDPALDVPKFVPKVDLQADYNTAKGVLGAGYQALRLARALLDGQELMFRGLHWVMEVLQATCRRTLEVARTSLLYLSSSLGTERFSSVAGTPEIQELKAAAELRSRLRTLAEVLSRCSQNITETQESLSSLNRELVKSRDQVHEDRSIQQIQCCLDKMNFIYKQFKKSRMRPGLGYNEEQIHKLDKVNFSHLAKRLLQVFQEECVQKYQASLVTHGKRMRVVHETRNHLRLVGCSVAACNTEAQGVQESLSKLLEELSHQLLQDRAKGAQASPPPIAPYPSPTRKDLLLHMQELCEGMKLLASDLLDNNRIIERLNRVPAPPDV

ACAD11 = target: T5, ACAD11 (Homo sapiens, UniProt Q709F0); assay: Kinobeads competition binding: ACAD11; details: target ACAD11
T5 construct: endogenous in cells
T5 sequence (Q709F0 1-780): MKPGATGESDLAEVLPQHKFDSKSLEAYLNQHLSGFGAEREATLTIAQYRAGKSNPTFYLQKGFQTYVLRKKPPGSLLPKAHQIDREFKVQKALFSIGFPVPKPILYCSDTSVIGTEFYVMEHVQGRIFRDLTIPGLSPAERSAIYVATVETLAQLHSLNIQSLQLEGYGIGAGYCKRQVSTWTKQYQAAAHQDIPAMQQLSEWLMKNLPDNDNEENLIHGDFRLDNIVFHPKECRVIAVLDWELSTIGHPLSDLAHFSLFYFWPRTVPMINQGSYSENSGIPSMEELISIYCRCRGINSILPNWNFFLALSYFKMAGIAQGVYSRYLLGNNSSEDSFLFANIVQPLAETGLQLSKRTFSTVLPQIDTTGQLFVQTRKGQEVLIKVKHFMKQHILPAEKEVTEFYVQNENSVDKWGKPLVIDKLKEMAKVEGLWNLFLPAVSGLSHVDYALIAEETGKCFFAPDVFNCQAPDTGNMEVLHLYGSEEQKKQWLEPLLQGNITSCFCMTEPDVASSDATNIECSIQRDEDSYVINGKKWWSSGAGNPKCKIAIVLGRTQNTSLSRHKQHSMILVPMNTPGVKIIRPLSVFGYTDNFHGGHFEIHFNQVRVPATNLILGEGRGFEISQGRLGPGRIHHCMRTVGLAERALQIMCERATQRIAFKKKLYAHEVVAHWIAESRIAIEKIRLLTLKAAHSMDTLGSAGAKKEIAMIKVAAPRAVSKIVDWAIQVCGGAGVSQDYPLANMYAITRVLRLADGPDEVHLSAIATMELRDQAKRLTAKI
Excerpt: Supplement 41589_2023_1459_MOESM4_ESM.xlsx, sheet "CATDS matrix" | column: ACAD11

IGF1R = assay: Kinobeads competition binding: IGF1R; design: species or system human; details: target IGF1R;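 note: selectivity score: engagement of this protein divided by summed engagement of all targets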
AKT3 = target: T6, AKT3 (Homo sapiens, UniProt Q9Y243); assay: Kinobeads competition binding: AKT3; details: target AKT3
T6 construct: endogenous in cells

PKMYT1 = assay: Kinobeads competition binding: PKMYT1; design: species or system human; details: target PKMYT1
HSPE1 = assay: Kinobeads competition binding: HSPE1; design: species or system human; details: target HSPE1
GSPT1;GSPT2 = assay: Kinobeads competition binding: GSPT1;GSPT2; design: species or system human; details: target GSPT1;GSPT2
CDK4 = target: T7, CDK4 (Homo sapiens, UniProt P11802); assay: Kinobeads competition binding: CDK4; details: target CDK4
T7 construct: endogenous in cells
Excerpt: Supplement 41589_2023_1459_MOESM4_ESM.xlsx, sheet "CATDS matrix" | column: CDK4

PGK1 = assay: Kinobeads competition binding: PGK1; design: species or system human; details: target PGK1

T3 sequence (P48730 whole entry): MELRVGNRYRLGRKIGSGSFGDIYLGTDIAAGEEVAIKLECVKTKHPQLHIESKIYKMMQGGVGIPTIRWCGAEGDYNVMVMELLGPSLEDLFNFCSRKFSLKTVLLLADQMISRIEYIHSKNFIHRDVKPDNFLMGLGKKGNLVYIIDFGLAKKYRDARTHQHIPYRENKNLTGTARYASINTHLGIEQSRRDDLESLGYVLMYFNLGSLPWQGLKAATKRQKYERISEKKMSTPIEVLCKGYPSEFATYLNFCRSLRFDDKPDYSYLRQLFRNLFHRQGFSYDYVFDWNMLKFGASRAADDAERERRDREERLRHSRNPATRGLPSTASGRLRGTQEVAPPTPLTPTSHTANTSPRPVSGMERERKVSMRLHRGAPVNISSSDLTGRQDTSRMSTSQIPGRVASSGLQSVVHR
T7 sequence (P11802 whole entry): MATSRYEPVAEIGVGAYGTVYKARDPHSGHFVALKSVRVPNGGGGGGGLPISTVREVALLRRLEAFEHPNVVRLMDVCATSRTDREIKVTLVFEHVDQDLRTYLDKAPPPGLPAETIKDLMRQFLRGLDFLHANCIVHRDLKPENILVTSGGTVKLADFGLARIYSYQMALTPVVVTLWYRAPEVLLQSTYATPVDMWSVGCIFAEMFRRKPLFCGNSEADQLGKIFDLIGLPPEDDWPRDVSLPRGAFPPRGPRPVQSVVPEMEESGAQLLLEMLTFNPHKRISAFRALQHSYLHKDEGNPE
T6 sequence (Q9Y243 whole entry): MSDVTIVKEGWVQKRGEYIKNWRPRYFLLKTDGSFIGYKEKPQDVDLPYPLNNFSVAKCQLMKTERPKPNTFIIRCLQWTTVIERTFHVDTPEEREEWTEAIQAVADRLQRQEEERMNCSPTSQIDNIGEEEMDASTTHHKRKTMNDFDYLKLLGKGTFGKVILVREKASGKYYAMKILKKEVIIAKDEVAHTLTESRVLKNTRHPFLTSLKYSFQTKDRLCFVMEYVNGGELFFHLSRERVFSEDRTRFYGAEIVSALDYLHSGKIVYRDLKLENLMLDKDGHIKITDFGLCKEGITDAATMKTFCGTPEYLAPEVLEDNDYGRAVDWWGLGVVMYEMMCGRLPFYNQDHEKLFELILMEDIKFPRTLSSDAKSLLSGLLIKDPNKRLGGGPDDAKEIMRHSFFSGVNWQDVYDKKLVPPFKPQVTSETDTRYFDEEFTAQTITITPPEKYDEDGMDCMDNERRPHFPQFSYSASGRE
T1 sequence (P31751 whole entry): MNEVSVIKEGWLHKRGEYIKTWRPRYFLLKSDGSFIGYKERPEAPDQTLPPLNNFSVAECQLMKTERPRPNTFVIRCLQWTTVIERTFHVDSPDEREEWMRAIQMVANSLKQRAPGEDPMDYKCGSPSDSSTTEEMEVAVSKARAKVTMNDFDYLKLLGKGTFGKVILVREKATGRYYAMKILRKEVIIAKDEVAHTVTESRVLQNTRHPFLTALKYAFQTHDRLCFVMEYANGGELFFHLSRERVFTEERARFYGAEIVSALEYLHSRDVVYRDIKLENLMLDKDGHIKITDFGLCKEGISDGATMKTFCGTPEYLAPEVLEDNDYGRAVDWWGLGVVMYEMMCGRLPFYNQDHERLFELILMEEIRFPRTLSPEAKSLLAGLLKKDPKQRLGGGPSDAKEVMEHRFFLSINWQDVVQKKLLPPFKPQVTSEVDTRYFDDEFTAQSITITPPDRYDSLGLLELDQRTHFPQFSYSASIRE
T2 sequence (P29317 24-976): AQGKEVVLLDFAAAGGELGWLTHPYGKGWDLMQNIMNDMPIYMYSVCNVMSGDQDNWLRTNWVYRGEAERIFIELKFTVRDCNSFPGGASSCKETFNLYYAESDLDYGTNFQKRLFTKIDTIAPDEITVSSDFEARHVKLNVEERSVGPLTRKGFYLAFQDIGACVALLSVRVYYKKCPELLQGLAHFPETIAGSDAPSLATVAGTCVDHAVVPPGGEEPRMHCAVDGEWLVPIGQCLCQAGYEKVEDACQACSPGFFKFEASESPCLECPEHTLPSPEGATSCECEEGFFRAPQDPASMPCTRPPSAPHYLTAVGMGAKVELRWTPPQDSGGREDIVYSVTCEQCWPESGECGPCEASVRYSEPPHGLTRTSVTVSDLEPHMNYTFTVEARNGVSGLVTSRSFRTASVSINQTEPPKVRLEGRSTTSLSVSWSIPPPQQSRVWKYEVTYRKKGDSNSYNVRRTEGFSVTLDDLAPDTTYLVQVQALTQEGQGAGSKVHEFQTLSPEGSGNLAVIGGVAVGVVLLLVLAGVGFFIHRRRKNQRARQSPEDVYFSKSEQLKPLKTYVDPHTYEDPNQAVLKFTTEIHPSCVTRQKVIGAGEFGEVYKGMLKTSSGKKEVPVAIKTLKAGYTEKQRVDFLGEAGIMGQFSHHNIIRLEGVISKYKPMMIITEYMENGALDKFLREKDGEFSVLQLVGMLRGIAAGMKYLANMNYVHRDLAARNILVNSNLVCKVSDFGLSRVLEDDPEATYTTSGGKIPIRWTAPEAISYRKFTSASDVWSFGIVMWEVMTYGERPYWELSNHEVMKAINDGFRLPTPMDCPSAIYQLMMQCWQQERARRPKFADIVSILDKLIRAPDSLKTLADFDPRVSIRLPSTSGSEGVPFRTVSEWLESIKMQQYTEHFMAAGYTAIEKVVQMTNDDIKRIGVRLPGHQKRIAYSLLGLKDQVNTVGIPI

Compound	CATDS (MAP3K11)	CATDS (BRAF)	CATDS (CDK17)	CATDS (AKT2)	CATDS (EPHA2)	CATDS (CSNK1D)	CATDS (NEK3)	CATDS (CDK12)	CATDS (IKBKE)	CATDS (ACAD11)	CATDS (IGF1R)	CATDS (AKT3)	CATDS (PKMYT1)	CATDS (HSPE1)	CATDS (GSPT1;GSPT2)	CATDS (CDK4)	CATDS (PGK1)
CCc1cc2c(cc1N1CCC(N3CCOCC3)CC1)C(C)(C)c1[nH]c3cc(C#N)ccc3c1C2=O [Alectinib]	0	0	0	0	0	0	0	0	0	0	0	0	0	0	0	0	0
CN(C)C/C=C/C(=O)Nc1cc2c(Nc3ccc(F)c(Cl)c3)ncnc2cc1O[C@H]1CCOC1 [Afatinib]	–	–	–	–	0	0	–	0	–	0	–	–	–	0	–	0	0
Nc1ncnc2[nH]c(-c3ccccc3)nc12 [AH5015_KCGS]	0	0	0	0	0	0	0	0	0	0	0	0	0	0	0	0	0
CCN1CCN(Cc2ccc(Nc3ncc(F)c(-c4cc(F)c5nc(C)n(C(C)C)c5c4)n3)nc2)CC1 [Abemaciclib]	0	0	0.02553	0	0	0	0	0	0	0	0	0	0	0	0	0	0
N#CC1(c2ccc(NC(=O)c3cccnc3NCc3ccncc3)cc2)CCCC1 [Apatinib]	0	0	0	0	0	0	0	0	0	0	0	0	0	0	0	0	0
